For data set [1] the following is noted: rcm bond, 15-membered ring, Hoveyda-Grubbs II.
The test system of another data set is HCV GT1a(H77) replicon. Description: HCV replicon luciferase reporter assay, genotype 1a. Type of data set: cell-based, HCV genotype 1a. The note with it: Hepatitis C virus, 72 h, HUH-7 cells, Renilla luciferase, 3 days incubation. In a few lines:
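Huh-7 cells stably carried a GT1a(H77) Renilla luciferase replicon with NS3 P1496L and NS5A S2204I adaptive mutations. Luminescence was read after 2 h with 7.5 μM EnduRen, and EC50 came from a four-parameter logistic fit; CC50 came from multiplexed Cell Titer-Blue (8 h).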
In general terms: In antiviral work, replicon cells carry a viral genome segment that copies itself.

The next data set deals with HCV GT1b(Con1) replicon. Kind of data set: HCV replicon luciferase reporter assay, genotype 1b. Particulars: Hepatitis C virus, 72 h, HUH-7 cells, Renilla luciferase, 3 days incubation. The data set is classed as cell-based, HCV genotype 1b. The procedure, abridged:
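HUH-7 cells stably carrying a Con1 GT1b replicon with Renilla luciferase and Ser1179Ile adaptive mutation; 3.0×10^3 cells/well, DMEM 4% FCS, 0.5% DMSO, twenty-point 3-fold titration, 3 days 37 °C. Luminescence 2 h after 7.5 μM EnduRen; EC50 by four-parameter logistic fit. CC50 from multiplexed Cell Titer-Blue fluorescence (8 h).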

The source of these data is US9334279B2, “Hepatitis C virus inhibitors” (BRISTOL-MYERS SQUIBB COMPANY, priority 2012, dated 2016).

Where two headings read alike, the source gives them in different places.

In the case of `CC1CC/C=C\[C@@H]2C[C@@]2(C(=O)NS(=O)(=O)C2(C)CC2)NC(=O)[C@@H]2C[C@@H](O)CN2C(=O)[C@@H](NC(=O)OC(C)(C)C)[C@H](C)C1` (stereo partly shown), in data set [1] (from C=CCCC(C)C[C@@H](C)[C@H](NC(=O)OC(C)(C)C)C(=O)N1C[C@H](O)C[C@H]1C(=O)N[C@]1(C(=O)NS(=O)(=O)C2(C)CC2)C[C@H]1C=C, 1,2-dichloroethane, 8.8 mM, 80.0 °C, 2.0 h), the ring closure, isolated yield is 70%.
As to `CC[C@@H]1CC(C)CC/C=C\[C@@H]2C[C@@]2(C(=O)NS(=O)(=O)C2CC2)NC(=O)[C@@H]2C[C@@H](O)CN2C(=O)[C@H]1NC(=O)OC(C)(C)C` (stereo partly shown), in data set [1] (from C=CCCC(C)C[C@@H](CC)[C@H](NC(=O)OC(C)(C)C)C(=O)N1C[C@@H](O)CC1C(=O)N[C@]1(C(=O)NS(=O)(=O)C2CC2)C[C@H]1C=C, dichloroethane, 26.6 mM, 95.0 °C, 16.0 h), the ring closure, isolated yield is 47%.
For the compound `CC[C@@H]1C[C@H](C)CC/C=C\[C@@H]2C[C@@]2(C(=O)NS(=O)(=O)C2CC2)NC(=O)[C@@H]2C[C@@H](Oc3cc(-c4ccc(C(F)(F)F)cc4)nc(-c4nccs4)c3)CN2C(=O)[C@H]1NC(=O)OC(C)(C)C(F)(F)F` [Compound 1053, 1,1,1-trifluoro-2-methylpropan-2-yl ((2R,6S,7R,9R,13aS,14aR,16aS,Z)-14a-((cyclopropylsulfonyl)carbamoyl)-7-ethyl-9-methyl-5,16-dioxo-2-((2-(thiazol-2-yl)-6-(4-(trifluoromethyl)phenyl)pyridin-4-yl)oxy)-1,2,3,5,6,7,8,9,10,11,13a,14,14a,15,16,16a-hexadecahydrocyclopropa[e]pyrrolo[1,2-a][1,4]diazacyclopentadecin-6-yl)carbamate], the EC50 in the data set with HCV GT1a(H77) replicon (read-out: LE_1a (EC50, range)) was in the range of 1.01 to 5 nM; in the data set with HCV GT1b(Con1) replicon (read-out: LE_1b (EC50, range)) it was 1.01 to 5 nM.
Consider `CC[C@@H]1C[C@H](C)CC/C=C\[C@@H]2C[C@@]2(C(=O)NS(=O)(=O)C2CC2)NC(=O)[C@@H]2C[C@@H](Oc3cc(-c4ccc(C(F)(F)F)cc4)nc(-c4nccs4)c3)CN2C(=O)[C@H]1NC(=O)OC1(C(F)(F)F)CCCOC1` (stereo partly drawn) [Compound 1054, 3-(trifluoromethyl)tetrahydro-2H-pyran-3-yl ((2R,6S,7R,9R,13aS,14aR,16aS,Z)-14a-((cyclopropylsulfonyl)carbamoyl)-7-ethyl-9-methyl-5,16-dioxo-2-((2-(thiazol-2-yl)-6-(4-(trifluoromethyl)phenyl)pyridin-4-yl)oxy)-1,2,3,5,6,7,8,9,10,11,13a,14,14a,15,16,16a-hexadecahydrocyclopropa[e]pyrrolo[1,2-a][1,4]diazacyclopentadecin-6-yl)carbamate], for which the EC50 fell in the range of 1.01 to 5 nM in the data set with HCV GT1a(H77) replicon (read-out: LE_1a (EC50, range)) and 0.51 to 1 nM with HCV GT1b(Con1) replicon (read-out: LE_1b (EC50, range)).
Consider `CC[C@@H]1C[C@H](C)CC/C=C\[C@@H]2C[C@@]2(C(=O)NS(=O)(=O)C2(C)CC2)NC(=O)[C@@H]2C[C@@H](Oc3ccnc(-c4nc(C)cs4)c3)CN2C(=O)[C@H]1NC(=O)OC(C)(C)C(F)(F)F` [Compound 1055, 1,1,1-trifluoro-2-methylpropan-2-yl ((2R,6S,7R,9R,13aS,14aR,16aS,Z)-7-ethyl-9-methyl-14a-(((1-methylcyclopropyl)sulfonyl)carbamoyl)-2-((2-(4-methylthiazol-2-yl)pyridin-4-yl)oxy)-5,16-dioxo-1,2,3,5,6,7,8,9,10,11,13a,14,14a,15,16,16a-hexadecahydrocyclopropa[e]pyrrolo[1,2-a][1,4]diazacyclopentadecin-6-yl)carbamate], for which the EC50 with HCV GT1a(H77) replicon (read-out: LE_1a (EC50, range)) was in the range of 1.01 to 5 nM; in the data set on HCV GT1b(Con1) replicon (read-out: LE_1b (EC50, range)), 1.01 to 5 nM.
For the compound `CC[C@@H]1C[C@H](C)CC/C=C\[C@@H]2C[C@@]2(C(=O)NS(=O)(=O)C2CC2)NC(=O)[C@@H]2C[C@@H](Oc3cc(OC)nc(-c4nccs4)c3)CN2C(=O)[C@H]1NC(=O)OC(C)(C)C(F)(F)F` [Compound 1056, 1,1,1-trifluoro-2-methylpropan-2-yl ((2R,6S,7R,9R,13aS,14aR,16aS,Z)-14a-((cyclopropylsulfonyl)carbamoyl)-7-ethyl-2-((2-methoxy-6-(thiazol-2-yl)pyridin-4-yl)oxy)-9-methyl-5,16-dioxo-1,2,3,5,6,7,8,9,10,11,13a,14,14a,15,16,16a-hexadecahydrocyclopropa[e]pyrrolo[1,2-a][1,4]diazacyclopentadecin-6-yl)carbamate], the EC50 was in the range of 1.01 to 5 nM in the data set with HCV GT1a(H77) replicon (read-out: LE_1a (EC50, range)) and 1.01 to 5 nM in the data set with HCV GT1b(Con1) replicon (read-out: LE_1b (EC50, range)).
On to `CC[C@@H]1C[C@H](C)CC/C=C\[C@@H]2C[C@@]2(C(=O)NS(=O)(=O)C2CC2)NC(=O)[C@@H]2C[C@@H](Oc3cc(-c4ccc(OC(C)C)cc4)nc(-c4nccs4)c3)CN2C(=O)[C@H]1NC(=O)O[C@@H]1C[C@@H]2C[C@@H]2C1` [Compound 1057, (1R,3r,5S)-bicyclo[3.1.0]hexan-3-yl ((2R,6S,7R,9R,13aS,14aR,16aS,Z)-14a-((cyclopropylsulfonyl)carbamoyl)-7-ethyl-2-((2-(4-isopropoxyphenyl)-6-(thiazol-2-yl)pyridin-4-yl)oxy)-9-methyl-5,16-dioxo-1,2,3,5,6,7,8,9,10,11,13a,14,14a,15,16,16a-hexadecahydrocyclopropa[e]pyrrolo[1,2-a][1,4]diazacyclopentadecin-6-yl)carbamate], for which the EC50 in the data set on HCV GT1a(H77) replicon (read-out: LE_1a (EC50, range)) was 1.01 to 5 nM; with HCV GT1b(Con1) replicon (read-out: LE_1b (EC50, range)), 1.01 to 5 nM.
In the case of `Cc1ccc(-c2cc(O[C@@H]3C[C@H]4C(=O)N[C@]5(C(=O)NS(=O)(=O)C6(C)CC6)C[C@H]5/C=C\CC[C@@H](C)C[C@@H](C)[C@H](NC(=O)OC(C)(C)C(F)(F)F)C(=O)N4C3)cc(-c3nccs3)n2)cc1` [Compound 1059, 1,1,1-trifluoro-2-methylpropan-2-yl ((2R,6S,7R,9R,13aS,14aR,16aS,Z)-7,9-dimethyl-14a-(((1-methylcyclopropyl)sulfonyl)carbamoyl)-5,16-dioxo-2-((2-(thiazol-2-yl)-6-(p-tolyl)pyridin-4-yl)oxy)-1,2,3,5,6,7,8,9,10,11,13a,14,14a,15,16,16a-hexadecahydrocyclopropa[e]pyrrolo[1,2-a][1,4]diazacyclopentadecin-6-yl)carbamate], the EC50 in the data set with HCV GT1a(H77) replicon (read-out: LE_1a (EC50, range)) lay within 0.51 to 1 nM; in the data set on HCV GT1b(Con1) replicon (read-out: LE_1b (EC50, range)), 0.51 to 1 nM.
Consider `C[C@@H]1CC/C=C\[C@@H]2C[C@@]2(C(=O)NS(=O)(=O)C2(C)CC2)NC(=O)[C@@H]2C[C@@H](Oc3cc(-c4ccccc4)nc(-c4nccs4)c3)CN2C(=O)[C@@H](NC(=O)OC(C)(C)C(F)(F)F)[C@H](C)C1` [Compound 1060, 1,1,1-trifluoro-2-methylpropan-2-yl ((2R,6S,7R,9R,13aS,14aR,16aS,Z)-7,9-dimethyl-14a-(((1-methylcyclopropyl)sulfonyl)carbamoyl)-5,16-dioxo-2-((2-phenyl-6-(thiazol-2-yl)pyridin-4-yl)oxy)-1,2,3,5,6,7,8,9,10,11,13a,14,14a,15,16,16a-hexadecahydrocyclopropa[e]pyrrolo[1,2-a][1,4]diazacyclopentadecin-6-yl)carbamate], for which the EC50 with HCV GT1a(H77) replicon (read-out: LE_1a (EC50, range)) is 0.51 to 1 nM; with HCV GT1b(Con1) replicon (read-out: LE_1b (EC50, range)) it was 0.1 to 0.5 nM.
As for `CC[C@@H]1C[C@H](C)CC/C=C\[C@@H]2C[C@@]2(C(=O)NS(=O)(=O)C2CC2)NC(=O)[C@@H]2C[C@@H](Oc3ccc(-c4nccs4)cn3)CN2C(=O)[C@H]1NC(=O)OC(C)(C)C(F)(F)F` [Compound 1063, 1,1,1-trifluoro-2-methylpropan-2-yl ((2R,6S,7R,9R,13aS,14aR,16aS,Z)-14a-((cyclopropylsulfonyl)carbamoyl)-7-ethyl-9-methyl-5,16-dioxo-2-((5-(thiazol-2-yl)pyridin-2-yl)oxy)-1,2,3,5,6,7,8,9,10,11,13a,14,14a,15,16,16a-hexadecahydrocyclopropa[e]pyrrolo[1,2-a][1,4]diazacyclopentadecin-6-yl)carbamate], the EC50 was 16.7 nM in the data set on HCV GT1a(H77) replicon (read-out: LE_1a (EC50)); 5.01 to 35 nM with HCV GT1a(H77) replicon (read-out: LE_1a (EC50, range)); 3.51 nM in the data set with HCV GT1b(Con1) replicon (read-out: LE_1b (EC50)); 1.01 to 5 nM in the data set with HCV GT1b(Con1) replicon (read-out: LE_1b (EC50, range)).
In the case of `C[C@@H]1CC/C=C\[C@@H]2C[C@@]2(C(=O)NS(=O)(=O)C2(C)CC2)NC(=O)[C@@H]2C[C@@H](Oc3ccc(-c4nccs4)cn3)CN2C(=O)[C@@H](NC(=O)OC(C)(C)C(F)(F)F)[C@H](C)C1` [Compound 1064, 1,1,1-trifluoro-2-methylpropan-2-yl ((2R,6S,7R,9R,13aS,14aR,16aS,Z)-7,9-dimethyl-14a-(((1-methylcyclopropyl)sulfonyl)carbamoyl)-5,16-dioxo-2-((5-(thiazol-2-yl)pyridin-2-yl)oxy)-1,2,3,5,6,7,8,9,10,11,13a,14,14a,15,16,16a-hexadecahydrocyclopropa[e]pyrrolo[1,2-a][1,4]diazacyclopentadecin-6-yl)carbamate], the EC50 with HCV GT1a(H77) replicon (read-out: LE_1a (EC50, range)) lay within 1.01 to 5 nM; in the data set on HCV GT1b(Con1) replicon (read-out: LE_1b (EC50, range)), 0.1 to 0.5 nM.

By EC50 is commonly meant the concentration needed to bring the measured effect to its halfway point.
